Values of other authors in patent US20060067952A1, “Low oil emulsion compositions for delivering taxoids and other insoluble drugs” (SD Pharmaceuticals, Inc., priority 2004, published 2006).
Where two headings read alike, the source gives them in different places.

Details: 25° C.

Volume of solvent required to dissolve 1 gram of the drug (H2O): 300 mL
Volume of solvent required to dissolve 1 gram of the drug (ethanol): 5 mL
SMILES: CC(=O)Oc1ccccc1C(=O)O [aspirin]
